Reference: patent US10703746B2, “Mutant IDH1 inhibitors useful for treating cancer” (THE UNITED STATES OF AMERICA, AS REPRESENTED BY THE …, priority 2014, dated 2020)

Key:
IDH1 R132H = IDH1 R132H (Homo sapiens, UniProt O75874, R132H); experiment: IDH1 R132H enzymatic assay (NADPH depletion coupled to diaphorase/resazurin); type: biochemical
IDH1 R132C = IDH1 R132C (Homo sapiens, UniProt O75874, R132C); experiment: IDH1 R132C enzymatic assay (NADPH depletion coupled to diaphorase/resazurin); type: biochemical
Outline: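 NADPH depletion, read via diaphorase/resazurin coupling, after adding substrate at 0.6 mM α-KG and 0.012 mM NADPH. Beforehand, 0.00032 mg/mL enzyme sat with compound 30 min at room temperature in pH 6.5 potassium phosphate buffer with MgCl2, glycerol and BSA.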

[1] = IDH1 R132H enzymatic inhibition, IC50 class
[2] = IDH1 R132C enzymatic inhibition, IC50 class
[3] = enzymatic inhibition, IDH1 R132H
[4] = enzymatic inhibition, IDH1 R132C

Sequence of IDH1 R132H (O75874 whole entry R132H): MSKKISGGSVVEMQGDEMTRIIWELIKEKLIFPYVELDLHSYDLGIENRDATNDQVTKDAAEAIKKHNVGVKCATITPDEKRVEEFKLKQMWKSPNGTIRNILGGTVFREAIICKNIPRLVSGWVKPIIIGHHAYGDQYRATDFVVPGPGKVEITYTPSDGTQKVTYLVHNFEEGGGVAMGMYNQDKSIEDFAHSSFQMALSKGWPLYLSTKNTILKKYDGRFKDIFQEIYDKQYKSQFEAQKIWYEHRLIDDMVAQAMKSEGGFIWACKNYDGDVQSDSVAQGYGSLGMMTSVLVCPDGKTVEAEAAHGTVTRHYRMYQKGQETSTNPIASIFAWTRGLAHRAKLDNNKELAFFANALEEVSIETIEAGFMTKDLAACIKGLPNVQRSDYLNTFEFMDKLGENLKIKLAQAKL
Sequence of IDH1 R132C (O75874 whole entry R132C): as the sequence (O75874 whole entry R132H) above, with H132C counted along it

| Structure (SMILES) | IC50 (IDH1 R132H; [1]) [nM] | IC50 (IDH1 R132C; [2]) [nM] | IC50 (IDH1 R132H; [3]) [nM] | IC50 (IDH1 R132C; [4]) [nM] |
| --- | --- | --- | --- | --- |
| CCOC(=O)c1cc(-c2nc(-c3ccc(Cl)cc3)cs2)c(=O)n(-c2c(CC)cccc2CC)c1-c1ccccc1 [Compound 3] | > 20000 | > 20000 |  |  |
| COc1ccc(OC)c(-n2c3c(cc(-c4nc(C)cs4)c2=O)C(=O)CC(C)(C)C3)c1 [Compound 124] | > 20000 | 5000 to 20000 |  |  |
| CCc1cccc(CC)c1-n1c2c(cc(-c3nc(-c4ccc(Cl)cc4)cs3)c1=O)C(=O)N(C)C2C(C)C (stereo not drawn) [Compound 338] | 1000 to 5000 | 300 to 1000 |  |  |
| CCc1cccc(CC)c1-n1c(CC(C)C)c(C(=O)N2CCNCC2)cc(-c2nc(-c3ccc(C)cc3)c(C)s2)c1=O [Compound 76] | < 300 | < 300 |  |  |
| CCc1cccc(CC)c1-n1c(C)c(C(=O)N2CCN[C@@H](C)C2)cc(-c2nc(-c3ccc(Cl)cc3)cs2)c1=O [Compound 38] | < 300 | 300 to 1000 |  |  |
| CCc1cccc(CC)c1-n1c(C)c(C(=O)N2CCNCC2)c(O)c(-c2nc(-c3ccc(Cl)cc3)cs2)c1=O [Compound 535] |  |  | 300 to 1000 | 1000 to 5000 |
| CCOc1ncc(Cl)cc1-n1c(C=C(C)C)c(C(=O)N2CCNCC2)cc(-c2nc(-c3ccc(C(F)F)cc3)cs2)c1=O [Compound 407] |  |  | < 300 | 300 to 1000 |
| COc1ccc(OC)c(-n2c3c(cc(-c4cccc(-c5ccc(Cl)cc5)c4)c2=O)C(=O)CC(C)(C)C3)c1 [Compound 111] | > 20000 | 5000 to 20000 |  |  |
| CCc1cccc(CC)c1-n1c(CC(C)C)c(C(=O)N2CCC(CO)C2)cc(-c2nc(-c3ccc(Cl)cc3)cs2)c1=O (stereo not drawn) [Compound 89] | 1000 to 5000 | 300 to 1000 |  |  |
| CCc1cccc(CC)c1-n1c(C)c(C(=O)NC2CCC(O)CC2)cc(-c2nc(-c3ccc(Cl)cc3)cs2)c1=O (stereo not drawn) [Compound 219] | 1000 to 5000 | 1000 to 5000 |  |  |
| CCc1cccc(CC)c1-n1c(C=C(C)C)c(C(=O)N2CCNC(C)C2C)cc(-c2nc(-c3ccc(Cl)cc3)cs2)c1=O (stereo not drawn) [Compound 646] | < 300 | < 300 |  |  |
| CCc1cccc(CC)c1-n1c2c(cc(-c3nc(-c4ccc(Cl)cc4)cs3)c1=O)C(=O)OC(C)(C)C2 [Compound 475] |  |  | 300 to 1000 | 300 to 1000 |
| COc1ccccc1-n1c(C=C(C)C)c(C(=O)N2CCNCC2)cc(-c2nc(-c3ccc(Cl)cc3)cs2)c1=O [Compound 644] | < 300 | 300 to 1000 |  |  |
| CCc1cccc(CC)c1-n1c(C)c(C(=O)NCC(N)=O)cc(-c2nc(-c3ccc(Cl)cc3)cs2)c1=O [Compound 260] | 1000 to 5000 | 1000 to 5000 |  |  |
| CCc1cccc(CC)c1-n1c(C=C(C)C)c(C(=O)N2CCNCC2)cc(-c2nc(-c3ccc(Cl)cn3)cs2)c1=O [Compound 377] | < 300 | < 300 |  |  |
| CCc1cccc(CC)c1-n1c(CC(C)C)c(C(=O)N2CCNCC2)cc(-c2nc(-c3ccc(Cl)cc3)c(C)s2)c1=O [Compound 82] | < 300 | < 300 |  |  |
| CCOc1ccc(Cl)cc1-n1c(C=C(C)C)c(C(=O)N2CCNCC2)cc(-c2nc(-c3ccc(C(F)(F)F)nc3)cs2)c1=O [Compound 626] | < 300 | 300 to 1000 |  |  |
| CCc1cccc(CC)c1-n1c(-c2cccn2C)c(C(=O)N2CCNCC2)cc(-c2nc(-c3ccc(Cl)cc3)cs2)c1=O [Compound 518] |  |  | < 300 | < 300 |
| O=C1CCCc2c1cc(-c1nc(-c3ccc(Cl)cc3)cs1)c(=O)n2-c1ccccc1CO [Compound 634] | > 20000 | 5000 to 20000 |  |  |
| COc1ccc(OC)c(-n2c3c(cc(-c4ccc(-c5ccccc5)cc4)c2=O)C(=O)CC(C)(C)C3)c1 [Compound 185] | > 20000 | > 20000 |  |  |
| CC(C)=Cc1c(C(=O)N2CCNCC2)cc(-c2nc(-c3ccc(Cl)cc3)cs2)c(=O)n1-c1ccccc1OC(C)C [Compound 399] | < 300 | < 300 |  |  |
| CCOCc1c(C(=O)N2CCNCC2)cc(-c2nc(-c3ccc(Cl)cc3)cs2)c(=O)n1-c1c(CC)cccc1CC [Compound 404] |  |  | < 300 | < 300 |
| CCc1cccc(CC)c1-n1c(CC(C)C)c(C(=O)N2CCNCC2)cc(-c2csc(-c3ccc(Cl)cc3)n2)c1=O [Compound 505] |  |  | < 300 | < 300 |
| CCc1cccc(CC)c1-n1c(CC(C)C)c(C(=O)NC[C@H](N)C(=O)O)cc(-c2nc(-c3ccc(Cl)cc3)cs2)c1=O [Compound 221] | 1000 to 5000 | 300 to 1000 |  |  |
| Cn1nccc1-n1c2c(cc(-c3nc(-c4ccc(Cl)cc4)cs3)c1=O)C(=O)CC(C)(C)C2 [Compound 382] | 5000 to 20000 | 1000 to 5000 |  |  |
| CN(C)c1ccccc1-n1c2c(cc(-c3nc(-c4ccc(Cl)cc4)cs3)c1=O)C(=O)CC(C)(C)C2 [Compound 56] | 300 to 1000 | 300 to 1000 |  |  |
| CCc1ccc(OC)cc1-n1c(C=C(C)C)c(C(=O)N2CCNCC2)cc(-c2nc(-c3ccc(Cl)cc3)cs2)c1=O [Compound 539] |  |  | < 300 | < 300 |
